Experimental data published in patent US9920061B2, “Imidazo[1,5-A]pyrimidinyl carboxamide compounds and their use in the treatment of medical disorders” (Lysosomal Therapeutics Inc., priority 2016, dated 2018).
Converted amounts (≈) assume the structure as drawn.

Assays:
[1] = biological target: T1, glucocerebrosidase (Gcase) (Homo sapiens, UniProt P04062); test: Glucocerebrosidase (Gcase) activation assay, 4-methylumbelliferyl-beta-D-glucopyranoside substrate, with saposin C; assay type: biochemical; settings: for activation at 0.1 µM: 0.1 μM test compound, read-out: Percent Gcase Activation 0.1 μM Test Compound; for activation at 1 µM: 1 μM test compound, read-out: Percent Gcase Activation 1 μM Test Compound
T1 sequence (P04062 40-536): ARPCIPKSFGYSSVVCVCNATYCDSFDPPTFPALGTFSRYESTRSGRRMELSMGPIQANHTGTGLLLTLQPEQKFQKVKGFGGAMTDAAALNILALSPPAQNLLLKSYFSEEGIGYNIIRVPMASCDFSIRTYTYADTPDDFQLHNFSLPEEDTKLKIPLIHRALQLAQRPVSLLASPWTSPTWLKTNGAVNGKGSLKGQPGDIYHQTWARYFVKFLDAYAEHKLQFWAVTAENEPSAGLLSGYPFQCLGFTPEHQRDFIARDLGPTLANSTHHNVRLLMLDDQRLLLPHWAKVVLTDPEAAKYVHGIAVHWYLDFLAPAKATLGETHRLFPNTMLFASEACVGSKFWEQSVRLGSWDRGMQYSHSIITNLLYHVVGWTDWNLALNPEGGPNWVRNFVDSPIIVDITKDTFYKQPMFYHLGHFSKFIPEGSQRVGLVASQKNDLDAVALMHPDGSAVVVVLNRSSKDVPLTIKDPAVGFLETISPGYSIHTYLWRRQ
In short: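 Compounds tested at 1.0 and 0.1 μM, then in 8-point 3-fold curves, were pre-incubated 30 min at room temperature with 10 nM GCase plus 100 nM saposin C in PS/triton micelles, pH 4.7. Reaction with substrate (2 mM in micelles before mixing) ran 15 min; stopped at pH 12.5, read at ex 365/em 440 nm.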

[2] = Compound solubility in water; assay type: physicochemical

SMILES | activation at 0.1 µM [1] | activation at 1 µM [1] | solubility [2]
COCCOc1cc(C)n2cnc(C(=O)N[C@@H](C)C3CC3)c2n1 [III-128] | < 10% | < 30% | 34.1 µg/mL (≈ 107 µM)
Cc1cc(-c2ccc3ncoc3c2)nc2c(C(=O)N[C@@H](C)C3CC3)ncn12 [III-129] | < 10% | > 60% | 6.1 µg/mL (≈ 16.9 µM)
Cc1cc(-c2ccc3ocnc3c2)nc2c(C(=O)N[C@@H](C)C3CC3)ncn12 [III-130] | > 20% | > 60% | 7.7 µg/mL (≈ 21.3 µM)
Cc1cc(-c2ccn3ccnc3c2)nc2c(C(=O)N[C@@H](C)C3CC3)ncn12 [III-131] | < 10% | < 30% | 2.8 µg/mL (≈ 7.77 µM)
CC[C@H](C)NC(=O)c1ncn2c(C)cc(-c3cccc(F)c3)nc12 [III-132] | 10 to 20% | > 60% | 18.6 µg/mL (≈ 57 µM)
Cc1cc(-c2cccc(F)c2)nc2c(C(=O)NC(C3CC3)C3CC3)ncn12 [III-133] | > 20% | > 60% | 1.5 µg/mL (≈ 4.12 µM)
Cc1cc(-c2cccc(Cl)c2)nc2c(C(=O)NC(C)(C)C)ncn12 [III-134] | > 20% | > 60% | 2.4 µg/mL (≈ 7 µM)
C#CC(C)(C)NC(=O)c1ncn2c(C)cc(-c3cccc(Cl)c3)nc12 [III-135] | > 20% | > 60% | 0.3 µg/mL (≈ 0.85 µM)
CCc1cc(N2CCCC(F)(F)C2)nc2c(C(=O)NC(C)(C)C3CC3)ncn12 [III-136] | > 20% | > 60% | 17.2 µg/mL (≈ 43.9 µM)
CCc1cc(N2CCCC(F)(F)C2)nc2c(C(=O)NC(C3CC3)C(F)(F)F)ncn12 (stereo not drawn) [III-137] | 10 to 20% | > 60% | 12 µg/mL (≈ 27.8 µM)
Cc1cc(N2CCCC(F)(F)C2)nc2c(C(=O)NC(C3CC3)C(F)(F)F)ncn12 (stereo not drawn) [III-138] | > 20% | > 60% | 17.2 µg/mL (≈ 41.2 µM)
Cc1cc(N2CCC(F)(F)C2)nc2c(C(=O)NC(C3CC3)C(F)(F)F)ncn12 (stereo not drawn) [III-139] | > 20% | > 60% | 1.8 µg/mL (≈ 4.46 µM)
Cc1cc(-c2nc(Cl)cs2)nc2c(C(=O)NC(C)(C)C3CC3)ncn12 [III-140] | < 10% | < 30% | 0.8 µg/mL (≈ 2.13 µM)
Cc1cc(-c2ccns2)nc2c(C(=O)NC(C3CC3)C(F)(F)F)ncn12 (stereo not drawn) [III-141] | > 20% | > 60% | 18 µg/mL (≈ 47.2 µM)
Cc1cc(-n2ccc(Cl)n2)nc2c(C(=O)NC(C)(C)C3CC3)ncn12 [III-142] | < 10% | < 30% | 14.9 µg/mL (≈ 41.5 µM)
Cc1cc(-n2ccc(Cl)n2)nc2c(C(=O)NC(C3CC3)C(F)(F)F)ncn12 (stereo not drawn) [III-143] | 10 to 20% | > 60% | 4.2 µg/mL (≈ 10.5 µM)
Cc1cc(N2CCC(C)(C)C2=O)nc2c(C(=O)NC(C3CC3)C(F)(F)F)ncn12 (stereo not drawn) [III-144] | < 10% | 30 to 60% | 20.5 µg/mL (≈ 50.1 µM)
Cc1cc(-c2cccc3ocnc23)nc2c(C(=O)NC(C3CC3)C(F)(F)F)ncn12 (stereo not drawn) [III-145] | > 20% | > 60% | 1.6 µg/mL (≈ 3.85 µM)
COc1cccc(-c2cc(C)n3cnc(C(=O)NC(C)(C)C4CC4)c3n2)n1 [III-146] | > 20% | > 60% | 0.9 µg/mL (≈ 2.46 µM)
COc1cccc(-c2cc(C)n3cnc(C(=O)NC(C4CC4)C(F)(F)F)c3n2)n1 (stereo not drawn) [III-147] | > 20% | > 60% | 0.5 µg/mL (≈ 1.23 µM)
C#CC(C)(C)NC(=O)c1ncn2c(C)cc(-c3cccc(OC)n3)nc12 [III-148] | < 10% | 30 to 60% | 4.9 µg/mL (≈ 14 µM)

SMILES | activation at 0.1 µM [1] | activation at 1 µM [1] | solubility [2]
CCc1cc(-c2cccc(OC)n2)nc2c(C(=O)NC(C3CC3)C(F)(F)F)ncn12 (stereo not drawn) [III-149] | > 20% | > 60% | 0.7 µg/mL (≈ 1.67 µM)
Cc1cc(-c2cccc(C#N)c2)nc2c(C(=O)N[C@@H](C)C3CC3)ncn12 [III-150] | 10 to 20% | > 60% | 10.1 µg/mL (≈ 29.2 µM)
Cc1cc(-c2cccc(C#N)c2)nc2c(C(=O)NC(C)(C)C3CC3)ncn12 [III-151] | > 20% | > 60% | 4.3 µg/mL (≈ 12 µM)
Cc1cc(-c2cccc(C#N)c2)nc2c(C(=O)NC(C3CC3)C(F)(F)F)ncn12 (stereo not drawn) [III-152] | > 20% | > 60% | 3.8 µg/mL (≈ 9.51 µM)
Cc1cc(-c2ccccc2C#N)nc2c(C(=O)NC(C3CC3)C(F)(F)F)ncn12 (stereo not drawn) [III-153] | > 20% | > 60% | 0.5 µg/mL (≈ 1.25 µM)
Cc1cc(-c2ccccc2C(N)=O)nc2c(C(=O)NC(C3CC3)C(F)(F)F)ncn12 (stereo not drawn) [III-154] | < 10% | < 30% | 28.1 µg/mL (≈ 67.3 µM)
CCOc1cccc(-c2cc(C)n3cnc(C(=O)N[C@@H](C)C4CC4)c3n2)n1 [III-155] | < 10% | 30 to 60% | 1.7 µg/mL (≈ 4.65 µM)
CCOc1cccc(-c2cc(C)n3cnc(C(=O)NC(C)(C)C4CC4)c3n2)n1 [III-156] | < 10% | 30 to 60% | 0.8 µg/mL (≈ 2.11 µM)
C#CC(C)(C)NC(=O)c1ncn2c(C)cc(-c3cccc(OC)c3)nc12 [III-157] | > 20% | > 60% | 2.1 µg/mL (≈ 6.03 µM)
Cc1cc(OC2CC(F)(F)C2)nc2c(C(=O)NC(C3CC3)C(F)(F)F)ncn12 (stereo not drawn) [III-158] | < 10% | 30 to 60% | 21.9 µg/mL (≈ 54.2 µM)
Cc1cc(-c2cccc3ncoc23)nc2c(C(=O)NC(C3CC3)C(F)(F)F)ncn12 (stereo not drawn) [III-160] | > 20% | > 60% | 8.9 µg/mL (≈ 21.4 µM)
CCc1cc(-c2cccc(OC)c2)nc2c(C(=O)N[C@@H](C)C3CC3)ncn12 [III-161] | > 20% | > 60% | 1.8 µg/mL (≈ 4.94 µM)
Cc1cc(-c2cccc(Cl)c2)nc2c(C(=O)NC(C)(C)C3CC3)ncn12 [III-162] | > 20% | > 60% | 0.2 µg/mL (≈ 0.542 µM)
Cc1cc(-c2cccc(F)c2)nc2c(C(=O)NC(C3CC3)C(F)(F)F)ncn12 (stereo not drawn) [III-163] | > 20% | > 60% | 0.4 µg/mL (≈ 1.02 µM)
C#CC(C)(C)NC(=O)c1ncn2c(C)cc(-c3cccc(F)c3)nc12 [III-164] | > 20% | > 60% | 4.5 µg/mL (≈ 13.4 µM)
CCc1cc(-c2ccns2)nc2c(C(=O)NC(C3CC3)C(F)(F)F)ncn12 (stereo not drawn) [III-165] | > 20% | > 60% | 4.7 µg/mL (≈ 11.9 µM)
CCc1cc(Oc2ccc(F)cc2)nc2c(C(=O)N[C@@H](C)C3CC3)ncn12 [III-166] | < 10% | 30 to 60% | 10.8 µg/mL (≈ 29.3 µM)
COc1cccc(-c2cc(C)n3cnc(C(=O)NC(C)C(F)(F)F)c3n2)c1 (stereo not drawn) [III-167] | > 20% | > 60% | 2.9 µg/mL (≈ 7.66 µM)
CCOc1cccc(-c2cc(C)n3cnc(C(=O)NC(C)C(F)(F)F)c3n2)c1 (stereo not drawn) [III-168] | > 20% | > 60% | 1.4 µg/mL (≈ 3.57 µM)
Cc1cc(-c2cccc(OC3CC3)c2)nc2c(C(=O)NC(C)C(F)(F)F)ncn12 (stereo not drawn) [III-169] | > 20% | > 60% | 0.7 µg/mL (≈ 1.73 µM)
